# Patent US20080032945A1, “2'-MODIFIED OLIGONUCLEOTIDES” (Isis Pharmaceuticals, Inc., priority 1992, published 2008)
# Several values for one entry are separate records, joined by “and”; a condition that tells them apart may be missing. Identical values can stand only once. Entries after “also recorded” stand apart in the source; their conditions may differ. d = 2'-deoxy (DNA); m = 2'-O-methyl; f = 2'-fluoro
# Key:
# c-raf mRNA = test: Northern blot analysis of inhibition of c-raf mRNA expression in T24 cells; format: cell-based, human
# Source text: Chimeric oligonucleotides having SEQ ID NO:7 were designed using the Genbank c-raf sequence HUMRAFR (Genbank listing x03484), synthesized and tested for inhibition of c-raf mRNA expression in T24 bladder carcinoma cells using a Northern blot assay. These chimeric oligonucleotides have central “gap” regions of 6, 8 or 10 deoxynucleotides flanked by two regions of 2′-O-methyl modified nucleotides, and are shown in Table 10. Backbones were uniformly phosphorothioate. […] These oligonucleotides are preferred.
# The human urinary bladder cancer cell line T24 was obtained from the American Type Culture Collection (Rockville, Md.). Cells were grown in McCoy's 5A medium with L-glutamine (GIBCO-BRL, Gaithersburg, Md.), supplemented with 10% heat-inactivated fetal calf serum and 50 U/ml each of penicillin and streptomycin. Cells were seeded on 100 mm plates. When they reached 70% confluency, they were treated with oligonucleotide. Plates were washed with 10 ml prewarmed PBS and 5 ml of OptiMEM reduced-serum medium containing 2.5 μl DOTMA. Oligonucleotide with lipofectin was then added to the desired concentration. After 4 hours of treatment, the medium was replaced with McCoy's medium. Cells were harvested 24 to 72 hours after oligonucleotide treatment and RNA was isolated using a standard CsCl purification method. [Kingston in Current Protocols in Molecular Biology, F. M. Ausubel, R. Brent, R. E. Kingston, D. D. Moore, J. A. Smith, J. G. Seidman and K. Strahl, Eds., John Wiley and Sons, New York.] Total RNA was isolated by centrifugation of cell lysates over a CsCl cushion. RNA samples were electrophoresed through 1.2% agarose-formaldehyde gels and transferred to hybridization membranes by capillary diffusion over a 12-14 hour period. The RNA was cross-linked to the membrane by exposure to UV light in a Stratalinker (Stratagene, La Jolla, Calif.) and hybridized to random-primed ^32P-labeled c-raf cDNA probe (obtained from ATCC) or G3PDH probe as a control. RNA was quantitated using a Phosphorimager (Molecular Dynamics, Sunnyvale, Calif.).
# [1] = test system: ras mRNA (wild-type H-ras codon-12); test: Northern blot analysis of ras expression in HeLa cells; format: cell-based, human; conditions: result in words
# Procedure: Oligonucleotides 2570 and 2503 were also tested to determine their effects on ras expression in HeLa cells, which have a wild-type (i.e., not activated) H-ras codon-12.
# The human urinary bladder cancer cell line T24 was obtained from the American Type Culture Collection (Rockville Md.). Cells were grown in McCoy's 5A medium with L-glutamine (GIBCO-BRL, Gaithersburg, Md.), supplemented with 10% heat-inactivated fetal calf serum and 50 U/ml each of penicillin and streptomycin. Cells were seeded on 100 mm plates. When they reached 70% confluency, they were treated with oligonucleotide. Plates were washed with 10 ml prewarmed PBS and 5 ml of OptiMEM (GIBCO) reduced-serum medium containing 2.5 μl DOTMA. Oligonucleotide was then added to the desired concentration. After 4 hours of treatment, the medium was replaced with McCoy's medium. Cells were harvested 48 hours after oligonucleotide treatment and RNA was isolated using a standard CsCl purification method. […]
# Northern hybridization: 10 μg of each RNA was electrophoresed on a 1.2% agarose/formaldehyde gel and transferred overnight to GeneBind 45 nylon membrane (Pharmacia LKB, Piscataway, N.J.) using standard methods. […] Blots were autoradiographed and the intensity of signal was quantitated using an ImageQuant PhosphorImager (Molecular Dynamics, Sunnyvale, Calif.). […]
# ras mRNA = test: Northern blot analysis of ras expression in T24 cells; format: cell-based, human; conditions: for ras expression / ras mRNA levels: result in words
# Procedure: The human urinary bladder cancer cell line T24 was obtained from the American Type Culture Collection (Rockville Md.). Cells were grown in McCoy's 5A medium with L-glutamine (GIBCO-BRL, Gaithersburg, Md.), supplemented with 10% heat-inactivated fetal calf serum and 50 U/ml each of penicillin and streptomycin. Cells were seeded on 100 mm plates. When they reached 70% confluency, they were treated with oligonucleotide. Plates were washed with 10 ml prewarmed PBS and 5 ml of OptiMEM (GIBCO) reduced-serum medium containing 2.5 μl DOTMA. Oligonucleotide was then added to the desired concentration. After 4 hours of treatment, the medium was replaced with McCoy's medium. Cells were harvested 48 hours after oligonucleotide treatment and RNA was isolated using a standard CsCl purification method. [Kingston in Current Protocols in Molecular Biology, F. M. Ausubel, R. Brent, R. E. Kingston, D. D. Moore, J. A. Smith, J. G. Seidman and K. Strahl, Eds., John Wiley and Sons, New York.] The human epithelioid carcinoma cell line HeLa 229 was obtained from the American Type Culture Collection (Bethesda, Md.). HeLa cells were maintained as monolayers on 6-well plates in Dulbecco's Modified Eagle's medium (DMEM) supplemented with 10% fetal bovine serum and 100 U/ml penicillin. Treatment with oligonucleotide and isolation of RNA were essentially as described above for T24 cells.
# Northern hybridization: 10 μg of each RNA was electrophoresed on a 1.2% agarose/formaldehyde gel and transferred overnight to GeneBind 45 nylon membrane (Pharmacia LKB, Piscataway, N.J.) using standard methods. [Kingston in Current Protocols in Molecular Biology, F. M. Ausubel, R. Brent, R. E. Kingston, D. D. Moore, J. A. Smith, J. G. Seidman and K. Strahl, Eds., John Wiley and Sons, New York.] RNA was UV-crosslinked to the membrane. Double-stranded ^32P-labeled probes were synthesized using the Prime a Gene labeling kit (Promega, Madison Wis.). The ras probe was a SalI-NheI fragment of a cDNA clone of the activated (mutant) H-ras mRNA having a GGC-to-GTC mutation at codon-12. The control probe was G3PDH. Blots were prehybridized for 15 minutes at 68° C. with the QuickHyb hybridization solution (Stratagene, La Jolla, Calif.). The heat-denatured radioactive probe (2.5×10^6 counts/2 ml hybridization solution) mixed with 100 μl of 10 mg/ml salmon sperm DNA was added and the membrane was hybridized for 1 hour at 68° C. The blots were washed twice for 15 minutes at room temperature in 2×SSC/0.1% SDS and once for 30 minutes at 60° C. with 0.1×SSC/0.1% SDS. Blots were autoradiographed and the intensity of signal was quantitated using an ImageQuant PhosphorImager (Molecular Dynamics, Sunnyvale, Calif.). Northern blots were first hybridized with the ras probe, then stripped by boiling for 15 minutes in 0.1×SSC/0.1% SDS and rehybridized with the control G3PDH probe to check for correct sample loading.
# [2] = test system: ras-luciferase (codon-12 point mutation of activated H-ras); test: ras-luciferase reporter gene system; format: cell-based, human; conditions: for inhibition of ras-luciferase activity: cells expressing the mutant form of ras-luciferase, dose response, FIGS. 1 and 2
# [3] = test system: 25mer oligoribonucleotide complement; test: Melting curves with 25mer oligoribonucleotide complement; format: binding; conditions: 17mer hybridized with 25mer oligoribonucleotide complement
# Source text: Other sugar modifications: The effects of other 2′ sugar modifications besides 2′-O-methyl on antisense activity in chimeric oligonucleotides have been examined. These modifications are listed in Table 4, along with the Tm values obtained when 17mer oligonucleotides having 2′-modified nucleotides flanking a 7-base deoxy gap were hybridized with a 25mer oligoribonucleotide complement as described in Example 25. […] As alkyl length increased, Tm decreased.
# Absorbance vs. temperature curves were measured at 260 nm using a Gilford 260 spectrophotometer interfaced to an IBM PC computer and a Gilford Response II spectrophotometer. The buffer contained 100 mM Na^+, 10 mM phosphate and 0.1 mM EDTA, pH 7. Oligonucleotide concentration was 4 μM each strand determined from the absorbance at 85° C. and extinction coefficients calculated according to Puglisi and Tinoco [Methods in Enzymol., 180, 304 (1989). Tm values, free energies of duplex formation and association constants were obtained from fits of data to a two state model with linear sloping baselines. [Petersheim and Turner, Biochemistry, 22, 256 (1983). Reported parameters are averages of at least three experiments. For some oligonucleotides, free energies of duplex formation were also obtained from plots of Tm^−1 vs log10 (concentration). Borer et al., J. Mol. Biol., 86, 843 (1974).
# [4] = test system: T24 cancer cell proliferation; test: Antisense oligonucleotide inhibition of proliferation of cancer cells; format: cell-based, human; conditions: for IC50: T24 cell proliferation, dose-response; for inhibited cell proliferation: T24 cells
# Procedure: Antisense oligonucleotide inhibition of proliferation of cancer cells: Three 17mer oligonucleotides having the same sequence (SEQ ID NO:1), complementary to the codon 12 region of activated ras, were tested for effects on T24 cancer cell proliferation as described in Example 28. 3985 is a full phosphorothioate oligonucleotide having a 7-deoxy gap flanked by 2′-O-methyl nucleotides, and 4690 is a full phosphorothioate oligonucleotide having a 7-deoxy gap flanked by 2′-F nucleotides (C^FC^FA^F C^FA^FCd CdGdAd CdGdGd C^FG^FC^F C^FC^F, SEQ ID NO:1, nucleotides identified with an “^F” contain a […] substituent group and the remainder of the nucleotides identified with a “d” are 2′-deoxy-erythro-pentofuranosyl nucleotides).
# Cells were cultured and treated with oligonucleotide essentially as described in Example 27. Cells were seeded on 60 mm plates and were treated with oligonucleotide in the presence of DOTMA when they reached 70% confluency. Time course experiment: On day 1, cells were treated with a single dose of oligonucleotide at a final concentration of 100 nM. The growth medium was changed once on day 3 and cells were counted every day for 5 days, using a counting chamber. Dose-response experiment: Various concentrations of oligonucleotide (10, 25, 50, 100 or 250 nM) were added to the cells and cells were harvested and counted 3 days later. Oligonucleotides 2570, 3985 and 4690 were tested for effects on T24 cancer cell proliferation.
# H-ras = test: ras transactivation reporter gene assay; format: cell-based; conditions: result in words
# Procedure: These 2′ modified oligonucleotides were tested for antisense activity against H-ras using the transactivation reporter gene assay described in Example 26. […] A 2′-fluoro chimeric oligonucleotide with a centered 5-deoxy gap was also active.
# The expression plasmid pSV2-oli, containing an activated (codon 12, GGC-GTC) H-ras cDNA insert under control of the constitutive SV40 promoter, was a gift from Dr. Bruno Tocque (Rhone-Poulenc Sante, Vitry, France). This plasmid was used as a template to construct, by PCR, a H-ras expression plasmid under regulation of the steroid-inducible mouse mammary tumor virus (MMTV) promoter. To obtain H-ras coding sequences, the 570 bp coding region of the H-ras gene was amplified by PCR. The PCR primers were designed with unique restriction endonuclease sites in their 5′-regions to facilitate cloning. The PCR product containing the coding region of the H-ras codon 12 mutant oncogene was gel purified, digested, and gel purified once again prior to cloning. This construction was completed by cloning the insert into the expression plasmid pMAMneo (Clontech Laboratories, CA).
# The ras-responsive reporter gene pRDO53 was used to detect ras expression. [Owen et al., Proc. Natl. Acad. Sci. U.S.A., 87, 3866 (1990).
substance,measurement,setting,value
"CTCGCCCGCTCCTCCTCCCC (all phosphorothioate, sugars by position and methylation of C not given here; further chemistry not fully specified) [ISIS 7849, chimeric 2′-O-methyl P═S c-raf oligonucleotide, 5′UTR]",inhibition of c-raf mRNA expression,c-raf mRNA,> 70%
"TCCGTCATCGCTCCTCAGGG [Compound 2503, reference compound]",ras expression,[1],inhibited ras expression in HeLa cells
same,inhibition of ras expression / decrease of ras mRNA,ras mRNA,71%
same,ras expression / ras mRNA levels,ras mRNA,inhibited ras expression in T24 cells
"TCCCGCCTGTGACATGCATT (all phosphorothioate, sugars by position and methylation of C not given here; further chemistry not fully specified) [ISIS 6717, chimeric 2′-O-methyl P═S c-raf oligonucleotide, 8-deoxy gap]",inhibition of c-raf mRNA expression,c-raf mRNA,greater than 90%
"CdCdAd CdAdCd CdGdAd CdGdGd CdGdCd CdCd [Oligonucleotide 2570, reference compound]",ras expression,[1],did not inhibit ras expression in HeLa cells
same,selectivity toward the mutant form of ras-luciferase as compared to the normal form,[2],threefold
same,inhibition of ras-luciferase activity,[2],dose-dependent inhibition
same,ras expression / ras mRNA levels,ras mRNA,inhibited ras expression in T24 cells; also recorded: decreased ras mRNA levels in T24 cells
same,Tm,[3],64.2 °C
C^MC^MA^M C^MA^MCd CdGdAd CdGdGd C^MG^MC^M C^MC^M [Oligonucleotide 3985],IC50,[4],61 nM
same,inhibited cell proliferation,[4],82%
same,inhibition of ras-luciferase activity,[2],greatest inhibition
same,inhibition of ras expression / decrease of ras mRNA,ras mRNA,95% and 81%
same,Tm,[3],74.7 °C
"Oligonucleotide 4689: SEQ ID NO:1 chimeric oligonucleotide, 2′-fluoro-modified nucleotides flanking a 5-deoxy gap (CCACACCGACGGCGCCC; sugars from the 5' end f6 d5 f6, backbone and methylation of C not given here)",inhibition of ras expression / decrease of ras mRNA,ras mRNA,63%
same,antisense activity against H-ras (ras expression),H-ras,also active
C^FC^FA^F C^FA^FCd CdGdAd CdGdGd C^FG^FC^F C^FC^F [Oligonucleotide 4690],IC50,[4],44 nM
same,inhibited cell proliferation,[4],93%
same,inhibition of ras expression / decrease of ras mRNA,ras mRNA,82%
same,antisense activity against H-ras (ras expression),H-ras,most active
same,Tm,[3],76.9 °C
"TTCTCGCCCGCTCCTCCTCC (all phosphorothioate, sugars by position and methylation of C not given here; further chemistry not fully specified) [ISIS 7856, chimeric 2′-O-methyl P═S c-raf oligonucleotide, 5′UTR]",inhibition of c-raf mRNA expression,c-raf mRNA,> 70%
"TTCTCCTCCTCCCCTGGCAG (sugars from the 5' end m12 d8, all phosphorothioate, T or U not given here) [ISIS 7854, chimeric 2′-O-methyl P═S c-raf oligonucleotide, 3′UTR]",inhibition of c-raf mRNA expression,c-raf mRNA,> 70%
